Source: ChEMBL document CHEMBL1145316, “Synthesis of novel tricyclic oxazolidinones by a tandem SN2 and SNAr reaction: SAR studies on conformationally constrained analogues of Linezolid” (2006)
Converted amounts (≈) assume the structure as drawn.

Tests used:
Type in all cases: functional
Enterococcus faecium = test: Antibacterial activity against vancomycin-resistant Enterococcus faecium ATCC 12202
Staphylococcus aureus [1] = test: Antibacterial activity against methicillin-resistant Staphylococcus aureus ATCC 33591
Enterococcus faecalis [2] = test: Antibacterial activity against vancomycin-resistant Enterococcus faecalis NCTC 12201
Staphylococcus aureus [3] = test: Antibacterial activity against Staphylococcus aureus ATCC 29213
Enterococcus faecalis [4] = test: Antibacterial activity against vancomycin-sensitive Enterococcus faecalis ATCC 29212
Staphylococcus aureus [5] = test: Antibacterial activity against Staphylococcus aureus ATCC 49951

Molecule `CC(=O)NC[C@H]1CN(c2ccc3c(c2)OC[C@@H]2CCCN32)C(=O)O1` has an MIC (Enterococcus faecium) of 16 µg/mL (≈ 48.3 µM), an MIC (Staphylococcus aureus [1]) of 4 µg/mL (≈ 12.1 µM) and an MIC (Enterococcus faecalis [2]) of 16 µg/mL (≈ 48.3 µM). The MIC (Staphylococcus aureus [3]) was 8 µg/mL (≈ 24.1 µM), the MIC (Enterococcus faecalis [4]) was 16 µg/mL (≈ 48.3 µM) and the MIC (Staphylococcus aureus [5]) was 4 µg/mL (≈ 12.1 µM).
Work on `COC(=S)NC[C@H]1CN(c2cc(F)c3c(c2)N(C)C[C@@H]2CCCN32)C(=O)O1` yielded an MIC (Enterococcus faecium) of 32 µg/mL (≈ 81.1 µM), an MIC (Staphylococcus aureus [1]) of over 32 µg/mL and an MIC (Enterococcus faecalis [2]) of over 32 µg/mL. For the same molecule, the MIC (Staphylococcus aureus [3]) was over 32 µg/mL, the MIC (Enterococcus faecalis [4]) was over 32 µg/mL and the MIC (Staphylococcus aureus [5]) was over 32 µg/mL.
Work on `CC(=O)NC[C@H]1CN(c2ccc3c(c2)SC[C@@H]2CCCN32)C(=O)O1` yielded an MIC (Enterococcus faecium) of 8 µg/mL (≈ 23 µM), an MIC (Staphylococcus aureus [1]) of 8 µg/mL (≈ 23 µM) and an MIC (Enterococcus faecalis [2]) of 8 µg/mL (≈ 23 µM). For the same molecule, the MIC (Staphylococcus aureus [3]) was 8 µg/mL (≈ 23 µM), the MIC (Enterococcus faecalis [4]) was 8 µg/mL (≈ 23 µM) and the MIC (Staphylococcus aureus [5]) was 8 µg/mL (≈ 23 µM).
For `CC(=O)NC[C@H]1CN(c2ccc3c(c2)N(C=O)C[C@@H]2CCCN32)C(=O)O1`, the MIC (Enterococcus faecium) was over 256 µg/mL, the MIC (Staphylococcus aureus [1]) was over 256 µg/mL and the MIC (Enterococcus faecalis [2]) was over 256 µg/mL. It also gave an MIC (Staphylococcus aureus [3]) of over 256 µg/mL, an MIC (Enterococcus faecalis [4]) of over 256 µg/mL and an MIC (Staphylococcus aureus [5]) of over 256 µg/mL.
Work on `CC(=O)NC[C@H]1CN(c2ccc3c(c2)S(=O)(=O)C[C@@H]2CCCN32)C(=O)O1` yielded an MIC (Enterococcus faecium) of over 32 µg/mL, an MIC (Staphylococcus aureus [1]) of over 32 µg/mL and an MIC (Enterococcus faecalis [2]) of over 32 µg/mL. It also gave an MIC (Staphylococcus aureus [3]) of over 32 µg/mL, an MIC (Enterococcus faecalis [4]) of over 32 µg/mL and an MIC (Staphylococcus aureus [5]) of over 32 µg/mL.
Work on `CC(=O)NC[C@H]1CN(c2cc(F)c3c(c2)SC[C@@H]2CCCN32)C(=O)O1` yielded an MIC (Enterococcus faecium) of 2 µg/mL (≈ 5.47 µM), an MIC (Staphylococcus aureus [1]) of 1 µg/mL (≈ 2.74 µM) and an MIC (Enterococcus faecalis [2]) of 1 µg/mL (≈ 2.74 µM). For the same molecule, the MIC (Staphylococcus aureus [3]) was 2 µg/mL (≈ 5.47 µM), the MIC (Enterococcus faecalis [4]) was 2 µg/mL (≈ 5.47 µM) and the MIC (Staphylococcus aureus [5]) was 1 µg/mL (≈ 2.74 µM).
In the case of `C/C(S)=N/C[C@H]1CN(c2cc(F)c3c(c2)SC[C@@H]2CCCN32)C(=O)O1`, the MIC (Enterococcus faecium) is reported as 0.25 µg/mL (≈ 0.655 µM), the MIC (Staphylococcus aureus [1]) is reported as 0.25 µg/mL (≈ 0.655 µM) and the MIC (Enterococcus faecalis [2]) is reported as 0.25 µg/mL (≈ 0.655 µM). For the same molecule, the MIC (Staphylococcus aureus [3]) was 0.5 µg/mL (≈ 1.31 µM), the MIC (Enterococcus faecalis [4]) was 0.5 µg/mL (≈ 1.31 µM) and the MIC (Staphylococcus aureus [5]) was 0.5 µg/mL (≈ 1.31 µM).
`CC(=O)NC[C@H]1CN(c2ccc3c(c2)N(C(=O)OCc2ccccc2)C[C@@H]2CCCN32)C(=O)O1` showed an MIC (Enterococcus faecium) of over 32 µg/mL, an MIC (Staphylococcus aureus [1]) of over 32 µg/mL and an MIC (Enterococcus faecalis [2]) of over 32 µg/mL. It also gave an MIC (Staphylococcus aureus [3]) of over 32 µg/mL, an MIC (Enterococcus faecalis [4]) of over 32 µg/mL and an MIC (Staphylococcus aureus [5]) of over 32 µg/mL.
In the case of `CC(=O)NC[C@H]1CN(c2ccc3c(c2)N(C(=O)CCl)C[C@@H]2CCCN32)C(=O)O1`, the MIC (Enterococcus faecium) is reported as over 256 µg/mL, the MIC (Staphylococcus aureus [1]) is reported as over 256 µg/mL and the MIC (Enterococcus faecalis [2]) is reported as over 256 µg/mL. The MIC (Staphylococcus aureus [3]) was over 256 µg/mL, the MIC (Enterococcus faecalis [4]) was over 256 µg/mL and the MIC (Staphylococcus aureus [5]) was over 256 µg/mL.
Molecule `COC(=S)NC[C@H]1CN(c2ccc3c(c2)SC[C@@H]2CCCN32)C(=O)O1` has an MIC (Enterococcus faecium) of 0.5 µg/mL (≈ 1.32 µM), an MIC (Staphylococcus aureus [1]) of 0.25 µg/mL (≈ 0.659 µM) and an MIC (Enterococcus faecalis [2]) of 0.25 µg/mL (≈ 0.659 µM). The MIC (Staphylococcus aureus [3]) was 0.5 µg/mL (≈ 1.32 µM), the MIC (Enterococcus faecalis [4]) was 0.25 µg/mL (≈ 0.659 µM) and the MIC (Staphylococcus aureus [5]) was 1 µg/mL (≈ 2.63 µM).
`CNC(=S)NC[C@H]1CN(c2cc(F)c3c(c2)SC[C@@H]2CCCN32)C(=O)O1` gave an MIC (Enterococcus faecium) of 1 µg/mL (≈ 2.52 µM), an MIC (Staphylococcus aureus [1]) of 0.5 µg/mL (≈ 1.26 µM) and an MIC (Enterococcus faecalis [2]) of 0.5 µg/mL (≈ 1.26 µM). It also gave an MIC (Staphylococcus aureus [3]) of 2 µg/mL (≈ 5.04 µM), an MIC (Enterococcus faecalis [4]) of 1 µg/mL (≈ 2.52 µM) and an MIC (Staphylococcus aureus [5]) of 0.5 µg/mL (≈ 1.26 µM).
In the case of `CC(=O)NC[C@H]1CN(c2cc(F)c3c(c2)N(C)C[C@@H]2CCCN32)C(=O)O1`, the MIC (Enterococcus faecium) is reported as 32 µg/mL (≈ 88.3 µM), the MIC (Staphylococcus aureus [1]) is reported as over 32 µg/mL and the MIC (Enterococcus faecalis [2]) is reported as over 32 µg/mL. The MIC (Staphylococcus aureus [3]) was over 32 µg/mL, the MIC (Enterococcus faecalis [4]) was over 32 µg/mL and the MIC (Staphylococcus aureus [5]) was over 32 µg/mL.
With `CC(=O)NC[C@H]1CN(c2ccc3c(c2)N(C(C)=O)C[C@@H]2CCCN32)C(=O)O1` the MIC (Enterococcus faecium) was over 256 µg/mL, the MIC (Staphylococcus aureus [1]) was over 256 µg/mL and the MIC (Enterococcus faecalis [2]) was over 256 µg/mL. The MIC (Staphylococcus aureus [3]) was over 256 µg/mL, the MIC (Enterococcus faecalis [4]) was over 256 µg/mL and the MIC (Staphylococcus aureus [5]) was over 256 µg/mL.
`COC(=S)NC[C@H]1CN(c2cc(F)c3c(c2)SC[C@@H]2CCCN32)C(=O)O1` gave an MIC (Enterococcus faecium) of 0.5 µg/mL (≈ 1.26 µM), an MIC (Staphylococcus aureus [1]) of 0.5 µg/mL (≈ 1.26 µM) and an MIC (Enterococcus faecalis [2]) of 0.5 µg/mL (≈ 1.26 µM). It also gave an MIC (Staphylococcus aureus [3]) of 1 µg/mL (≈ 2.52 µM), an MIC (Enterococcus faecalis [4]) of 1 µg/mL (≈ 2.52 µM) and an MIC (Staphylococcus aureus [5]) of 1 µg/mL (≈ 2.52 µM).
Molecule `CC(=O)NC[C@H]1CN(c2ccc(N3CCOCC3)c(F)c2)C(=O)O1` [LINEZOLID] has an MIC (Enterococcus faecium) of 2 µg/mL (≈ 5.93 µM) and an MIC (Staphylococcus aureus [1]) of 1 µg/mL (≈ 2.96 µM).
Molecule `CN[C@H](CC(C)C)C(=O)N[C@H]1C(=O)N[C@@H](CC(N)=O)C(=O)N[C@H]2C(=O)N[C@H]3C(=O)N[C@H](C(=O)N[C@H](C(=O)O)c4cc(O)cc(O)c4-c4cc3ccc4O)[C@H](O)c3ccc(c(Cl)c3)Oc3cc2cc(c3O[C@@H]2O[C@H](CO)[C@@H](O)[C@H](O)[C@H]2O[C@H]2C[C@](C)(N)[C@H](O)[C@H](C)O2)Oc2ccc(cc2Cl)[C@H]1O` [VANCOMYCIN] has an MIC (Enterococcus faecium) of over 32 µg/mL, an MIC (Enterococcus faecalis [2]) of over 32 µg/mL and an MIC (Enterococcus faecalis [4]) of 2 µg/mL (≈ 1.38 µM).
